Reference: PMC6722837, “Multiple Modulation of Acid-Sensing Ion Channel 1a by the Alkaloid Daurisoline” (Biomolecules, 2019)

Target: T1, ASIC1a (acid-sensing ion channel 1a) (Rattus norvegicus, UniProt P55926)
T1 construct: gene Asic1; rat ASIC1a isoform expressed in Xenopus laevis oocytes
T1 sequence (P55926 1-526): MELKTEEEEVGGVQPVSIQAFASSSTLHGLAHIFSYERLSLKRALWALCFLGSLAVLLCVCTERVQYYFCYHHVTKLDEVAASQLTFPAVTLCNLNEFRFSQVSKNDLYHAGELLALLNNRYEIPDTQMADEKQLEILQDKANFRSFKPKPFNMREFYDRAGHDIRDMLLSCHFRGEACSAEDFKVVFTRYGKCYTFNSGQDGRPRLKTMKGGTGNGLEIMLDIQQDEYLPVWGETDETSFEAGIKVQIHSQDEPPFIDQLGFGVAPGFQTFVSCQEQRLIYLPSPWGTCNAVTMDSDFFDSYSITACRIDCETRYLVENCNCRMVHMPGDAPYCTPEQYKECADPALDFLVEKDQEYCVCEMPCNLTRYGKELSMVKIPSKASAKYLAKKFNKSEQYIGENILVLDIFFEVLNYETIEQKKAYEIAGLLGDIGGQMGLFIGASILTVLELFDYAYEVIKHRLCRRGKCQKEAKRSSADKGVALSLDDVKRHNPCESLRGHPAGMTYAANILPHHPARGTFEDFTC
Experiment: two-electrode voltage clamp in Xenopus oocytes; second peak of the pH […].5-evoked current at conditioning pH […]
Format: cell-based

COc1cc2c(cc1O)[C@@H](Cc1ccc(O)c(Oc3ccc(C[C@@H]4c5cc(OC)c(OC)cc5CCN4C)cc3)c1)N(C)CC2 [DAU, daurisoline]
EC50: 23 ± 3 µM
